How the values were obtained:
HER2 INS YVMA = molecular target: T1, HER2 INS YVMA (Homo sapiens, UniProt P04626, INS775YVMA); experiment: Lance Kinase Activity Assay, HER2 INS YVMA (Her2 Exon 20 INSYVMA Lance); format: biochemical; details: biochemical Lance assay
T1 construct: purchased DPF
How it was run: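 Kinase phosphorylates a ULight-labelled peptide substrate; Eu anti-phospho antibody gives TR-FRET (ex 340 nm, em 665/615 nm). Compounds in 1:3 serial dilution over 8 steps, reaction started with ATP, 1 h at room temperature, stopped with EDTA-containing detection mix for 1 h. IC50 from sigmoidal dose-response curves.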

[1] = molecular target: Her2 Exon 20 INSYVMA Ba/F3 (Homo sapiens, UniProt P04626, DUP772-775, cells depend on it); experiment: Her2 Exon 20 INSYVMA Ba/F3 CellTiter-Glo; format: cell-based; details: CellTiter-Glo, 72 h, read-out: Her2 Exon 20 INSYVMA Ba/F3 CTG IC50
How it was run: (§1)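 IC50 values come from dose–response fits of CellTiter-Glo luminescence in Ba/F3 cells treated with compound for 72 h at 37 °C, 5% CO2. Vehicle (DMSO) and 10 μM staurosporine wells set the assay window, with Z′ ≥0.5 required.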

[2] = molecular target: EGFR Exon 20 INSNPH Ba/F3 (Homo sapiens, UniProt P00533, DUP771-773, cells depend on it); experiment: EGFR Exon 20 INSNPH Ba/F3 CellTiter-Glo; format: cell-based; details: CellTiter-Glo, 72 h, read-out: EGFR Exon 20 INSNPH Ba/F3 CTG IC50
How it was run: as §1

EGFR T790ML858R = EGFR T790ML858R (Homo sapiens, UniProt P00533, L858R/T790M); experiment: EGFR T790ML858R Lance assay; format: biochemical
Procedure: (§2) Inhibition is indicated as […] [nM] (“−”=not measured). Compounds having an activity designated as “A” provided an IC50≤100 nM; compounds having an activity designated as “B” provided an 100 nM<IC50≤500 nM; compounds having an activity designated as “C” provided an 500 nM<IC50≤1000 nM; compounds having an activity designated as “D” provided an 1000 nM<IC50≤100000 nM; and compounds having an activity designated as “E” provided an IC50>10000 nM.

EGFR wt = EGFR wt (Homo sapiens, UniProt P00533); experiment: EGFR wt Lance assay; format: biochemical
Procedure: as §2

H1975 = H1975 CellTiter-Glo; format: cell-based; details: Homo sapiens, NCI-H1975; 72 h compound incubation; read-out: H1975 CTG IC50
How it was run: (§3)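 Antiproliferative IC50 values come from a 72 h treatment of cultured cells, measured by CellTiter-Glo ATP luminescence. Only runs with a Z′-factor of at least 0.5, calculated from 16 vehicle and 16 Staurosporine (10 μM) control wells, are reported.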

H1781 = H1781 CellTiter-Glo; format: cell-based; details: NCI-H1781; 72 h compound incubation; read-out: H1781 CTG IC50
Procedure: 2. Measurement of Cellular Activity
The CellTiter-Glo Luminescent Cell Viability Assay (Promega) is a homogeneous method of determining the number of viable cells in culture. It is based on quantification of ATP, indicating the presence of metabolically active cells. Cells are seeded on day 1 at cell numbers that assure assay linearity and optimal signal intensity. After incubation for 24 h in humidified chambers at 37° C. and 5% CO2, compounds in DMSO are added at different concentrations. Cells are further incubated for 72 h at 37° C. and 5% CO2. Cells treated with the compound vehicle DMSO are used as positive controls and cells treated with 10 μM Staurosporine serve as negative controls. At day 5 the CellTiter Glo Reagent is prepared according to the instructions of the kit (Promega Inc.): Reagent is mixed 1:1 with cell culture medium. Thereon, mixture and assay plates are equilibrated at room temperature for 20 min. Equal volumes of the reagent-medium-mixture is added to the volume of culture medium present in each well. The plates are mixed at ˜200 rpm for 2 minutes on an orbital shaker. The microplates are then incubated at room temperature for 10 minutes for stabilization of the luminescent signal. Following incubation the luminescence is recorded on a Victor microplate reader (Perkin Elmer) using a 200 ms integration time. The data is then analyzed with Excel using the XLFIT Plugin (dose response Fit 205) for IC50-determination. As quality control the Z′-factor is calculated from 16 positive and negative control values. Only assay results showing a Z′-factor ≥0.5 are used for further analysis.
as §2

A431 = A431 CellTiter-Glo; format: cell-based; details: Homo sapiens, A-431; 72 h compound incubation; read-out: A431 CTG IC50
How it was run: as §3

[3] = Metabolic stability in mouse liver microsomes without cofactor NADPH; format: in vitro ADME; details: 3 μM test compound, mouse liver microsomes, without NADPH, 50 min, 37° C., LC-MS/MS
How it was run: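 Test compound (3 μM) was incubated with mouse liver microsomes without NADPH at 37° C. Depletion was followed by LC-MS/MS over time up to 50 min.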

Her2 Exon 20 INSYVMA Ba/F3, sequence (P04626 with tags, fused parts or gaps DUP772-775): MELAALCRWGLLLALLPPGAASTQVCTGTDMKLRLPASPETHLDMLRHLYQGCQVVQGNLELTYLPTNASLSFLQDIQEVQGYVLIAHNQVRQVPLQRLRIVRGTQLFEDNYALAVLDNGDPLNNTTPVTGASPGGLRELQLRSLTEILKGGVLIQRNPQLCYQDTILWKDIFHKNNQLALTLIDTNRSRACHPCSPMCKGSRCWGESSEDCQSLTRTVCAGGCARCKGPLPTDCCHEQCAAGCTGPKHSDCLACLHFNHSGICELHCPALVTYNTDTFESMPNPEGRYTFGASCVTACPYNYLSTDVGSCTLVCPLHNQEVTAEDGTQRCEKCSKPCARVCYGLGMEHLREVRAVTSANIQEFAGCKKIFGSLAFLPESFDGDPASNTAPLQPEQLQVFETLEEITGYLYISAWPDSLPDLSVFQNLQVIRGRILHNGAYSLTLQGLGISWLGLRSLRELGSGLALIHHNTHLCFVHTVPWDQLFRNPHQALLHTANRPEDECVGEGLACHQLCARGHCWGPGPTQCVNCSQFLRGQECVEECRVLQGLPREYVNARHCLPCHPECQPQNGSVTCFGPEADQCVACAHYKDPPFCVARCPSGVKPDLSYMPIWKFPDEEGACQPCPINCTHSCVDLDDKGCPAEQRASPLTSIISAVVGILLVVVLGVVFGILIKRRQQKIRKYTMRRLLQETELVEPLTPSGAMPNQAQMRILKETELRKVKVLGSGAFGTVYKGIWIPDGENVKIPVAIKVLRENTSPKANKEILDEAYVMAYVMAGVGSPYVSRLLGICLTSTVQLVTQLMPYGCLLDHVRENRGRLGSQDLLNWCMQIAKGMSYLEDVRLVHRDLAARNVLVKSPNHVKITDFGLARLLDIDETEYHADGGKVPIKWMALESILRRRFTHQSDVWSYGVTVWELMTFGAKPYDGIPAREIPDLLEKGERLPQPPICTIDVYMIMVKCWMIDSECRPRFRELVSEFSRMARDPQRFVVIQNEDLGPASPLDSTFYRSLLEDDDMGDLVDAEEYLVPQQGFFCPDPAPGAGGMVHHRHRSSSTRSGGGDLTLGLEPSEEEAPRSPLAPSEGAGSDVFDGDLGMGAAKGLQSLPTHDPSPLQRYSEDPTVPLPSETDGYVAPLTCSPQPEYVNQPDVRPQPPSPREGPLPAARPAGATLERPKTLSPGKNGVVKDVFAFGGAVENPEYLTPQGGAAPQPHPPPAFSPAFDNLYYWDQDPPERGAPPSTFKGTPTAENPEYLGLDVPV
EGFR T790ML858R, sequence (P00533 25-1210 T790M/L858R): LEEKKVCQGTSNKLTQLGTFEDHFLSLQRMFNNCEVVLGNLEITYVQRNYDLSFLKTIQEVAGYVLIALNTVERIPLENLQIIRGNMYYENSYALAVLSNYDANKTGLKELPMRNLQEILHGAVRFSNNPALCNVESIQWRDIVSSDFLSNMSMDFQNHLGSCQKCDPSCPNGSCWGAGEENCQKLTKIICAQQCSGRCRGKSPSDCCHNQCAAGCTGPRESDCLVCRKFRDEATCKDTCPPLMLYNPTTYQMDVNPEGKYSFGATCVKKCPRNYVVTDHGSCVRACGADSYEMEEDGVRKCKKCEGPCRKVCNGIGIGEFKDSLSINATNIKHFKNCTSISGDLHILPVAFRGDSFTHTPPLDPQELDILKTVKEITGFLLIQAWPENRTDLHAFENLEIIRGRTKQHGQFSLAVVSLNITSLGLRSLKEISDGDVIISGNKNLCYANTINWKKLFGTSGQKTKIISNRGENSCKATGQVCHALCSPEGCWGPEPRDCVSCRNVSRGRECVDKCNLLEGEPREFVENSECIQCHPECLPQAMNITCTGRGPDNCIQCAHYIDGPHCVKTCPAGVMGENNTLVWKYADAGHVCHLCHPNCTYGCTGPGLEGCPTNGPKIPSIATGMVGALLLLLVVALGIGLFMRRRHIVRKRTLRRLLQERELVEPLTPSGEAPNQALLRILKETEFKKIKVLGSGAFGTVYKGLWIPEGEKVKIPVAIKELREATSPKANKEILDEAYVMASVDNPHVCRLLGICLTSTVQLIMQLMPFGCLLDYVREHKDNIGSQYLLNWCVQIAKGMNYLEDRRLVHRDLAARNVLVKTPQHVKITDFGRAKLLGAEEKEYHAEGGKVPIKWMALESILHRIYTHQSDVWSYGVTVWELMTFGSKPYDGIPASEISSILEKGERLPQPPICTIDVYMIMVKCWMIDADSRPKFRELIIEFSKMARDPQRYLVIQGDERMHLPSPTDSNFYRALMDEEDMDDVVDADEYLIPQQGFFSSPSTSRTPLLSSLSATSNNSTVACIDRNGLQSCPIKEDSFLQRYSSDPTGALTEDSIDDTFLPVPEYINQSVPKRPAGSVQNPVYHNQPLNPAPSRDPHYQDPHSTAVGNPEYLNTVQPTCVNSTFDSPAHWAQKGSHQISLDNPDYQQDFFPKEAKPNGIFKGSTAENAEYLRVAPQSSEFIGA
EGFR Exon 20 INSNPH Ba/F3, sequence (P00533 with tags, fused parts or gaps DUP771-773): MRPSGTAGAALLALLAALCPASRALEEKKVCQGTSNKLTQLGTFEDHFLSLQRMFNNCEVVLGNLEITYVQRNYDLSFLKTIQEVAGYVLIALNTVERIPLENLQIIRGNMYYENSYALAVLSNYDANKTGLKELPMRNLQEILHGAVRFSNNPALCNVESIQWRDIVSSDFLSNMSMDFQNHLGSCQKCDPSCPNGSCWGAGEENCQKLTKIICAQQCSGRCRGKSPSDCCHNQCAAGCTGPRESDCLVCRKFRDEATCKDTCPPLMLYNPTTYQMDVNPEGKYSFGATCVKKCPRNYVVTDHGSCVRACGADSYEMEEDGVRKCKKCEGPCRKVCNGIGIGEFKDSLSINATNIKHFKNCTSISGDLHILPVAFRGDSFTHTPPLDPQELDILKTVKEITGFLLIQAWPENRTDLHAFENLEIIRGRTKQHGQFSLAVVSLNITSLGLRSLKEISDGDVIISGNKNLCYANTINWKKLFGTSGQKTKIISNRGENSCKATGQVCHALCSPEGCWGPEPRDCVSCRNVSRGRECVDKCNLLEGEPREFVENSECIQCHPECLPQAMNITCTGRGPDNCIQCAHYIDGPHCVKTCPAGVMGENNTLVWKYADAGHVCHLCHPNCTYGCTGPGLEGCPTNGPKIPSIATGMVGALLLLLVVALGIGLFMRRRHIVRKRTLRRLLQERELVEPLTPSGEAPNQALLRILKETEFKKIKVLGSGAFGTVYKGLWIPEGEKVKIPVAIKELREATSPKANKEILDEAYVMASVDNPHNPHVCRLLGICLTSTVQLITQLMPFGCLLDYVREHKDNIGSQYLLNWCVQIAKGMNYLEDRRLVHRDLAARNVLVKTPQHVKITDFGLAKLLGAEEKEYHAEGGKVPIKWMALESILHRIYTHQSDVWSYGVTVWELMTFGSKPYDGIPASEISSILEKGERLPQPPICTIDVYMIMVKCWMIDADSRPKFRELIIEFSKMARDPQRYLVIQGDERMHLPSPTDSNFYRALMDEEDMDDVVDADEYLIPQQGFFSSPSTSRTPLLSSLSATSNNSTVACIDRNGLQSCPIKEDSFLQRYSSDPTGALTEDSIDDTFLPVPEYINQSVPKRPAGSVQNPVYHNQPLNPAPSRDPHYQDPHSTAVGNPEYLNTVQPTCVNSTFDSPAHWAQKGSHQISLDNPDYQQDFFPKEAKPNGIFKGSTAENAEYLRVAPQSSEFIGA
T1 sequence (P04626 with tags, fused parts or gaps INS775YVMA): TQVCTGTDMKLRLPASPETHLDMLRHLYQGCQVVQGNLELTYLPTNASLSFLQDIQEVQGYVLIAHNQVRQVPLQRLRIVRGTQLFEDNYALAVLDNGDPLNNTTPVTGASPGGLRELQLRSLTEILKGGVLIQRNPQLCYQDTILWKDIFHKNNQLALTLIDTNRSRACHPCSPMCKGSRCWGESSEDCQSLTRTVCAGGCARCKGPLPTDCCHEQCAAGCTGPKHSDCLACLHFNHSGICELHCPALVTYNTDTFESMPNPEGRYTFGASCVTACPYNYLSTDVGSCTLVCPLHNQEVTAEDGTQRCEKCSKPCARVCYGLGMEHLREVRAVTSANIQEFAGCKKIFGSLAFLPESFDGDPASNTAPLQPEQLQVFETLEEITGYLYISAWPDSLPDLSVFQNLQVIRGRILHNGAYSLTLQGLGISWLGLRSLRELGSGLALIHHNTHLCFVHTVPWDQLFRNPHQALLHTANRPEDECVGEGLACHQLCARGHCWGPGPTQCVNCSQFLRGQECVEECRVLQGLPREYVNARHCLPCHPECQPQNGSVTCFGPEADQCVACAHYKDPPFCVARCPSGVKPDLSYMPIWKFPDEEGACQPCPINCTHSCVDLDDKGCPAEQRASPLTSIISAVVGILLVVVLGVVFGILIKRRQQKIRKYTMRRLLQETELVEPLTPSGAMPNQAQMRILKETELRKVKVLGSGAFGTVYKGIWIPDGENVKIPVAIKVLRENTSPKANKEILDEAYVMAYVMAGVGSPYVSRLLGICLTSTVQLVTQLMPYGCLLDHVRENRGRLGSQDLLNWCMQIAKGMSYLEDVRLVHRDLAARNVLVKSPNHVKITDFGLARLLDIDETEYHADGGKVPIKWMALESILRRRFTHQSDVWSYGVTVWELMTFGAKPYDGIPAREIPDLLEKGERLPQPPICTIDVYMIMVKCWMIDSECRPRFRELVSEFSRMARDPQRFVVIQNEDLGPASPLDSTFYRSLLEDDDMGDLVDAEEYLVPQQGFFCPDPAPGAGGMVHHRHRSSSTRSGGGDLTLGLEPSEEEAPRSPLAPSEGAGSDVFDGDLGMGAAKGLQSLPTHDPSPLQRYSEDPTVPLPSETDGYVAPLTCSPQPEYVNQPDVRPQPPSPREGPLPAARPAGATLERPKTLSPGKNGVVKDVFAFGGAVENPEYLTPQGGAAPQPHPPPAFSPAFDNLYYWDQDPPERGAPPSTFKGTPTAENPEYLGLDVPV

| Structure (SMILES) | IC50 (HER2 INS YVMA) | GI50 [1] | GI50 [2] | IC50 (EGFR T790ML858R) | IC50 (EGFR wt) | IC50 (H1975) | IC50 (H1781) | IC50 (A431) | Stability in presence of mouse liver microsomes without cofactor NADPH [% remaining after 50 min] [3] |
| --- | --- | --- | --- | --- | --- | --- | --- | --- | --- |
| C=CC(=O)Nc1cc(-c2c(-c3ccnc(N4CCN(C)CC4)c3)[nH]c3nccc(Cl)c23)ccc1C [Example 26, N-(5-(4-chloro-2-(2-(4-methylpiperazin-1-yl)pyridin-4-yl)-1H-pyrrolo[2,3-b]pyridin-3-yl)-2-methylphenyl)acrylamide] | ≤ 100 nM | 100 to 500 nM | 100 to 500 nM | ≤ 100 nM | ≤ 100 nM | ≤ 100 nM | 500 to 1000 nM | 100 to 500 nM | >99 % remaining after 50 min |
| C=CC(=O)Nc1cc(-c2c(-c3ccc(CN4CCN(C)CC4)cc3)[nH]c3nccc(OC)c23)ccc1C [Example 77, N-(5-(4-methoxy-2-(4-((4-methylpiperazin-1-yl)methyl)phenyl)-1H-pyrrolo[2,3-b]pyridin-3-yl)-2-methylphenyl)acrylamide] | ≤ 100 nM | 100 to 500 nM | 100 to 500 nM | ≤ 100 nM | ≤ 100 nM | ≤ 100 nM | 100 to 500 nM | 100 to 500 nM | >99 % remaining after 50 min |
| C=CC(=O)Nc1cc(-c2c(-c3ccc(OCCCN(C)C)cc3)[nH]c3nccc(Cl)c23)ccc1C [Example 13, N-(5-(4-chloro-2-(4-(3-(dimethylamino)propoxy)phenyl)-1H-pyrrolo[2,3-b]pyridin-3-yl)-2-methylphenyl)acrylamide] | ≤ 100 nM | 100 to 500 nM | 100 to 500 nM | ≤ 100 nM | ≤ 100 nM | ≤ 100 nM | 100 to 500 nM | 100 to 500 nM | 95 % remaining after 50 min |
| C=CC(=O)N1CCc2ccc(-c3c(-c4ccc(N5CCN(C(C)=O)CC5)cc4)[nH]c4nccc(Cl)c34)cc21 [Example 58, 1-(6-(2-(4-(4-acetylpiperazin-1-yl)phenyl)-4-chloro-1H-pyrrolo[2,3-b]pyridin-3-yl)indolin-1-yl)prop-2-en-1-one] | ≤ 100 nM | 1000 to 10000 nM | 1000 to 10000 nM | ≤ 100 nM | ≤ 100 nM | 100 to 500 nM | 1000 to 100000 nM | 1000 to 100000 nM | >99 % remaining after 50 min |
| C=CC(=O)N1CCc2ccc(-c3c(-c4ccc(CN(C)C)cc4)[nH]c4nccc(Cl)c34)cc21 [Example 61, 1-(6-(4-chloro-2-(4-((dimethylamino)methyl)phenyl)-1H-pyrrolo[2,3-b]pyridin-3-yl)indolin-1-yl)prop-2-en-1-one] | ≤ 100 nM | 100 to 500 nM | 100 to 500 nM | ≤ 100 nM | ≤ 100 nM | ≤ 100 nM | 500 to 1000 nM | 100 to 500 nM | >99 % remaining after 50 min |
| C=CC(=O)Nc1cc(-c2c(-c3ccc(C(=O)N4CCOCC4)cc3)[nH]c3nccc(Cl)c23)ccc1C [Example 11, N-(5-(4-chloro-2-(4-(morpholine-4-carbonyl)phenyl)-1H-pyrrolo[2,3-b]pyridin-3-yl)-2-methylphenyl)acrylamide] | ≤ 100 nM | 100 to 500 nM | 100 to 500 nM | ≤ 100 nM | ≤ 100 nM | ≤ 100 nM | 500 to 1000 nM | 100 to 500 nM | >99 % remaining after 50 min |
| C=CC(=O)Nc1cc(-c2c(-c3cccc(OCCN(C)C)c3)[nH]c3nccc(Cl)c23)ccc1C [Example 28, N-(5-(4-chloro-2-(3-(2-(dimethylamino)ethoxy)phenyl)-1H-pyrrolo[2,3-b]pyridin-3-yl)-2-methylphenyl)acrylamide] | ≤ 100 nM | 100 to 500 nM | 100 to 500 nM | ≤ 100 nM | ≤ 100 nM | ≤ 100 nM | 100 to 500 nM | 100 to 500 nM | >99 % remaining after 50 min |
| C=CC(=O)N1CCOc2ccc(-c3c(-c4ccc(N5CCN(C)CC5)cc4)[nH]c4nccc(Cl)c34)cc21 [Example 83, 1-(6-(4-chloro-2-(4-(4-methylpiperazin-1-yl)phenyl)-1H-pyrrolo[2,3-b]pyridin-3-yl)-2H-benzo[b][1,4]oxazin-4(3H)-yl)prop-2-en-1-one 2,2,2-trifluoroacetate] | ≤ 100 nM | 100 to 500 nM | 100 to 500 nM | ≤ 100 nM | ≤ 100 nM | 100 to 500 nM | 1000 to 100000 nM | 1000 to 100000 nM | >99 % remaining after 50 min |
| C=CC(=O)N1CCc2ccc(-c3c(-c4ccnc(N5CCN(C)CC5)c4)[nH]c4nccc(Cl)c34)cc21 [Example 59, 1-(6-(4-chloro-2-(2-(4-methylpiperazin-1-yl)pyridin-4-yl)-1H-pyrrolo[2,3-b]pyridin-3-yl)indolin-1-yl)prop-2-en-1-one] | ≤ 100 nM | 100 to 500 nM | 100 to 500 nM | ≤ 100 nM | ≤ 100 nM | ≤ 100 nM | 100 to 500 nM | 100 to 500 nM | >99 % remaining after 50 min |
| C=CC(=O)Nc1cc(-c2c(-c3ccc(N4CCN(C(C)=O)CC4)cc3)[nH]c3nccc(Cl)c23)ccc1C [Example 8, N-(5-(2-(4-(4-acetylpiperazin-1-yl)phenyl)-4-chloro-1H-pyrrolo[2,3-b]pyridin-3-yl)-2-methylphenyl)acrylamide] | ≤ 100 nM | 100 to 500 nM | 100 to 500 nM | ≤ 100 nM | ≤ 100 nM | ≤ 100 nM | 100 to 500 nM | 100 to 500 nM | >99 % remaining after 50 min |
| C=CC(=O)Nc1cc(-c2c(-c3ccc(OCCN(C)C)cc3)[nH]c3nccc(Cl)c23)ccc1C [Example 18, N-(5-(4-chloro-2-(4-(2-(dimethylamino)ethoxy)phenyl)-1H-pyrrolo[2,3-b]pyridin-3-yl)-2-methylphenyl)acrylamide] | ≤ 100 nM | 100 to 500 nM | ≤ 100 nM | ≤ 100 nM | ≤ 100 nM | ≤ 100 nM | 100 to 500 nM | 100 to 500 nM | 90 % remaining after 50 min |
| C=CC(=O)Nc1cc(-c2c(-c3ccc(CN4CCOCC4)cc3)[nH]c3nccc(OC)c23)ccc1C [Example 75, N-(5-(4-methoxy-2-(4-(morpholinomethyl)phenyl)-1H-pyrrolo[2,3-b]pyridin-3-yl)-2-methylphenyl)acrylamide] | ≤ 100 nM | 100 to 500 nM | ≤ 100 nM | ≤ 100 nM | ≤ 100 nM | ≤ 100 nM | 100 to 500 nM | 100 to 500 nM | >99 % remaining after 50 min |
